Measured values published in US20220153732A1, “PROTEIN SECRETION INHIBITORS” (KEZAR LIFE SCIENCES, priority 2019, published 2022).
Like-named read-outs stand apart in the source and are kept apart here.

How the values were obtained:
Format in all cases: cell-based
[1] = tested on: PD1-ss+10aa/Gaussia Luciferase; assay: Dox-Induced PD1-ss-Gluc Assay
Method in brief: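 Stable cell line carrying PD1-ss+10aa/Gaussia luciferase cDNA under T-REx (doxycycline-inducible) control, plated the day before assay. Compound dilutions in DMSO/media containing doxycycline added and incubated at 37° C, 5% CO2. Undefined stereocentres: data refer to stereoisomer mixtures.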

[2] = tested on: TNFα-FL/Gaussia Luciferase; assay: Dox Induced TNFα-FL-Gluc Assay
Method in brief: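 A stable T-REx cell line carrying doxycycline-inducible TNFα-FL/Gaussia luciferase was plated the day before assay. Compound dilutions in DMSO/media containing doxycycline were then added and incubated at 37° C, 5% CO2.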

[3] = tested on: HER3-ss+4aa/Gaussia Luciferase; assay: Dox-Induced Her3-ss-Gluc Assay
Method in brief: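 Stable T-REx cell line carrying a doxycycline-regulated HER3-ss+4aa/Gaussia luciferase insert, plated the day before assay. Compound dilutions in DMSO/media with doxycycline added, then incubated at 37° C., 5% CO2. Stereoisomer mixtures tested where stereochemistry is not drawn.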

[4] = tested on: IL-2-FL/Gaussia Luciferase; assay: Dox Induced IL2-FL-Gluc Assay
Method in brief: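 Stable T-REx cell line expressing doxycycline-inducible IL-2-FL/Gaussia luciferase cDNA, plated the day before assay. Compound dilutions in DMSO/media containing doxycycline added and incubated at 37° C., 5% CO2. Unspecified stereochemistry means data refer to a stereoisomer mixture.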

[5] = tested on: human multiple myeloma cell line NCI-H929; assay: H929 Cell Viability Assay; conditions: 48 hr, NCI-H929 cells, Celltiter-Glo, read-out: 48 hr H929 Viability Celltiter-Glo: Mean EC50
Method: Plates were incubated at 37° C., 5% CO2 for 48 hours. After 48 hours, Celltiter-Glo® (Promega) was added to each well and luciferase signal was quantified using Tecan Infinite M1000 Pro for cell viability determination.
For chemical structures that include one or more stereoisomers, but are illustrated without indicating stereochemistry, the assay data refers to a mixture of stereoisomers.

[6] = tested on: human multiple myeloma cell line U266B1; assay: U266 Cell Viability Assay; conditions: U-266, 48 hr, U266B1 cells, Celltiter-Glo, read-out: 48 hr U266 Viability Celltiter-Glo: Mean EC50
Method in brief: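 U266B1 myeloma cells treated with compound dilutions in DMSO/media for 48 h at 37 °C, 5% CO2. Viability read by CellTiter-Glo luminescence. Stereochemically undefined structures were tested as stereoisomer mixtures.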

[7] = 24 hr, doxycycline-induced, 293FRT/TO cells; read-out: 24 hr Dox Inducible PD1ssGluc 293FRT/TO: Mean IC50
[8] = 24 hr, doxycycline-induced, 293FRT/TO cells; read-out: 24 hr Dox Inducible TNFaFLGluc 293FRT/TO: Mean IC50
[9] = 24 hr, doxycycline-induced, 293FRT/TO cells; read-out: 24 hr Dox Inducible Her3(ss + 4)Gluc 293FRT/TO: Mean IC50
[10] = 24 hr, doxycycline-induced, 293FRT/TO cells; read-out: 24 hr Dox Inducible IL2FLGIuc 293FRT/TO: Mean IC50
[11] = read-out: 24 hr Dox Inducible PD1ssGluc 293FRT/TO: Mean IC50; 24 hr, doxycycline-induced, 293FRT/TO cells
[12] = read-out: 24 hr Dox Inducible TNFaFLGluc 293FRT/TO: Mean IC50; 24 hr, doxycycline-induced, 293FRT/TO cells
[13] = read-out: 24 hr Dox Inducible Her3(ss + 4)Gluc 293FRT/TO: Mean IC50; 24 hr, doxycycline-induced, 293FRT/TO cells
[14] = read-out: 24 hr Dox Inducible IL2FLGIuc 293FRT/TO: Mean IC50; 24 hr, doxycycline-induced, 293FRT/TO cells

Row | Structure (SMILES) | IC50 [1, 7] [nM] | IC50 [2, 8] [nM] | IC50 [3, 9] [nM] | IC50 [4, 10] [nM] | EC50 [5] [nM] | EC50 [6] [nM] | IC50 [1, 11] [nM] | IC50 [2, 12] [nM] | IC50 [3, 13] [nM] | IC50 [4, 14] [nM]
1 | O=C(Nc1nc(/C=C/c2ccc(OC(F)(F)F)cn2)cs1)c1cccn1Cc1ccncc1 [Compound A327] | 16 | 4490 | 469 | 999 | 15100 | > 25000 | – | – | – | –
2 | O=C(Nc1nc([C@H]2CCCN2c2ccc3c(c2)OC(F)(F)O3)cs1)c1cccn1Cc1ccncc1 [Compound A328] | 9 | 105 | 12 | 14 | 381 | 16500 | – | – | – | –
3 | O=C(Nc1nc([C@H]2C[C@H](Oc3ccccc3)C2)cs1)c1cccn1Cc1ccncc1 [Compound A329] | 202 | 3160 | 342 | 739 | 22800 | > 25000 | – | – | – | –
4 | COc1cnc([C@@H]2C[C@H]2c2csc(NC(=O)c3cccn3Cc3ccncc3)n2)c(F)c1 [Compound A335] | 130 | 3010 | 411 | 752 | 11400 | > 25000 | – | – | – | –
5 | CC(C)OC(C)(C)c1csc(NC(=O)c2ccccc2N2CCOCC2)n1 [Compound A340] | > 25000 | > 25000 | > 25000 | > 25000 | > 25000 | > 25000 | – | – | – | –
6 | N#Cc1ccc(/C=C/c2csc(NC(=O)c3cccn3Cc3ccncc3)n2)nc1 [Compound A341] | 47 | > 25000 | > 25000 | > 25000 | > 25000 | > 25000 | – | – | – | –
7 | O=C(Nc1nc(/C=C/c2ccc(F)cn2)cs1)c1cccn1Cc1ccncc1 [Compound A342] | 68 | > 25000 | 952 | 1400 | 23700 | > 25000 | – | – | – | –
8 | O=C(Nc1nc(/C=C/c2ccc(C(F)(F)F)cn2)cs1)c1cccn1Cc1ccncc1 [Compound A343] | 17 | 3620 | 492 | 1150 | 7180 | 15900 | – | – | – | –
9 | Cc1cccnc1/C=C/c1csc(NC(=O)c2cccn2Cc2ccncc2)n1 [Compound A347] | 42 | 13100 | 6010 | 9580 | 23800 | 20300 | – | – | – | –
10 | CC(C)OC(C)(C)c1csc(NC(=O)c2sccc2-c2ccncc2)n1 [Compound A348] | > 25000 | > 25000 | > 25000 | > 25000 | 17000 | 18300 | – | – | – | –
11 | O=C(Nc1nc([C@H]2C[C@@H](c3ccccn3)C2)cs1)c1cccn1Cc1ccncc1 [Compound A349] | 364 | 6620 | 1260 | 1700 | 12500 | > 25000 | – | – | – | –
12 | O=C(Nc1nc([C@H]2C[C@H](c3ccccn3)C2)cs1)c1cccn1Cc1ccncc1 [Compound A350] | 707 | 14900 | 2390 | > 25000 | > 25000 | > 25000 | – | – | – | –
13 | CC(C)(C)[Si](O[C@@H]1CCN(c2ccccc2)[C@@H]1c1csc(NC(=O)c2cccn2Cc2ccncc2)n1)(c1ccccc1)c1ccccc1 [Compound A352] | – | – | – | – | 452 | > 25000 | 8 | 62 | 19 | 16
14 | CC(C)(C)[Si](O[C@H]1CCN(c2ccccc2)[C@@H]1c1csc(NC(=O)c2cccn2Cc2ccncc2)n1)(c1ccccc1)c1ccccc1 [Compound A353] | – | – | – | – | 303 | > 25000 | 5 | 13 | 12 | 11
15 | Cc1cccc(/C=C\c2csc(NC(=O)c3cccn3Cc3ccncc3)n2)n1 [Compound A355] | 524 | 9740 | 3810 | 11300 | 22300 | 17200 | – | – | – | –

Further lines, with some results ahead:

Row | IC50 [1, 7] [nM] | IC50 [2, 8] [nM] | IC50 [3, 9] [nM] | IC50 [4, 10] [nM] | EC50 [5] [nM] | EC50 [6] [nM] | Structure (SMILES) | IC50 [1, 11] [nM] | IC50 [2, 12] [nM] | IC50 [3, 13] [nM] | IC50 [4, 14] [nM]
16 | 59 | 308 | 201 | 126 | 5000 | > 25000 | O=C(Nc1nc([C@H]2C[C@H](O)CN2c2ccccc2)cs1)c1cccn1Cc1ccncc1 [Compound A326] | – | – | – | –
17 | 218 | 3920 | 475 | 1020 | 19200 | > 25000 | O=C(Nc1nc([C@H]2C[C@@H](Oc3ccccc3)C2)cs1)c1cccn1Cc1ccncc1 [Compound A330] | – | – | – | –
18 | 64 | 423 | 82 | 178 | 4720 | > 25000 | O=C(Nc1nc([C@H]2CC[C@@H]2c2ccccc2)cs1)c1cccn1Cc1ccncc1 [Compound A331] | – | – | – | –
19 | 64 | 516 | 97 | 82 | 4290 | > 25000 | O=C(Nc1nc([C@@H]2CCCCN2c2ccccc2)cs1)c1cccn1Cc1ccncc1 [Compound A332] | – | – | – | –
20 | 21 | 165 | 42 | 27 | 1480 | > 25000 | CO[C@H]1C[C@H](c2csc(NC(=O)c3cccn3Cc3ccncc3)n2)N(c2ccccc2)C1 [Compound A333] | – | – | – | –
21 | 80 | 775 | 138 | 110 | 6470 | 9050 | CO[C@H]1CCN(c2ccccc2)[C@H]1c1csc(NC(=O)c2cccn2Cc2ccncc2)n1 [Compound A334] | – | – | – | –
22 | 374 | 1350 | 835 | 334 | 17900 | > 25000 | O=C(Nc1nc([C@H]2CCN2c2ccccc2)cs1)c1cccn1Cc1ccncc1 [Compound A336] | – | – | – | –
23 | 190 | 2850 | 548 | 379 | 21500 | > 25000 | O=C(Nc1nc([C@@H]2COCCN2c2ccccc2)cs1)c1cccn1Cc1ccncc1 [Compound A337] | – | – | – | –
24 | 205 | 1850 | 264 | 345 | 14800 | > 25000 | C[C@]1(c2csc(NC(=O)c3cccn3Cc3ccncc3)n2)CCCN1c1ccccc1 [Compound A338] | – | – | – | –
25 | 18 | 226 | 29 | 13 | 1310 | > 25000 | O=C(Nc1nc([C@H]2CC(F)(F)CN2c2ccccc2)cs1)c1cccn1Cc1ccncc1 [Compound A339] | – | – | – | –
26 | 971 | 8860 | 2030 | 1350 | > 25000 | > 25000 | O=C(Nc1nc(C2[C@@H](O)CCN2c2ccccc2)cs1)c1cccn1Cc1ccncc1 (stereo partly drawn) [Compound A344] | – | – | – | –
27 | 11 | 100 | 22 | 23 | 720 | > 25000 | CO[C@@H]1CCN(c2ccccc2)C1c1csc(NC(=O)c2cccn2Cc2ccncc2)n1 (stereo partly drawn) [Compound A345] | – | – | – | –
28 | 17 | 92 | 22 | 20 | 972 | > 25000 | CC(C)O[C@@H]1CC(c2csc(NC(=O)c3cccn3Cc3ccncc3)n2)N(c2ccccc2)C1 (stereo partly drawn) [Compound A346] | – | – | – | –
29 | 167 | 954 | 450 | 259 | 7500 | > 25000 | O=C(Nc1nc([C@H]2[C@H](O)CCN2c2ccccc2)cs1)c1cccn1Cc1ccncc1 [Compound A351] | – | – | – | –
30 | 6 | 54 | 16 | 21 | 901 | > 25000 | O=C(Nc1nc([C@H]2C[C@@H](OC3CCCCC3)CN2c2ccccc2)cs1)c1cccn1Cc1ccncc1 [Compound A354] | – | – | – | –
